In US9469650B2, “Melampomagnolide B derivatives” (BOARD OF TRUSTEES OF THE UNIVERSITY OF ARKANSAS, priority 2013, dated 2016):

Key:
[1] = test system: SR; assay: panel of 60 human tumor cell lines, growth inhibition (Leukemia)
[2] = test system: CAKI-1; assay: panel of 60 human tumor cell lines, growth inhibition (Renal Cancer); settings: CAKI-1
[3] = test system: SNB-75; assay: panel of 60 human tumor cell lines, growth inhibition (CNS Cancer); settings: SNB-75
[4] = test system: T-47D; assay: panel of 60 human tumor cell lines, growth inhibition (Breast Cancer); settings: T-47D
[5] = test system: IGROV1; assay: panel of 60 human tumor cell lines, growth inhibition (Ovarian Cancer); settings: IGROVI
[6] = test system: SW-620; assay: panel of 60 human tumor cell lines, growth inhibition (Colon Cancer); settings: SW-620
[7] = test system: 786-0; assay: panel of 60 human tumor cell lines, growth inhibition (Renal Cancer); settings: 786-0
[8] = test system: MCF7; assay: panel of 60 human tumor cell lines, growth inhibition (Breast Cancer); settings: MCF7
[9] = test system: SF-268; assay: panel of 60 human tumor cell lines, growth inhibition (CNS Cancer); settings: SF-268
[10] = test system: MDA-MB-468; assay: panel of 60 human tumor cell lines, growth inhibition (Breast Cancer); settings: MDA-MB-468

Which results are given for `C=C1C(=O)O[C@H]2[C@H]1CC/C(COC(=O)N1CCN(C)CC1)=C\CC[C@@]1(C)O[C@@H]21` [JVM 2-44]?
Mean Optical Densities ([1]; Log10 Concentration −6.0): 1.105; Percent Growth ([1]; Log10 Concentration −6.0): 78%; Mean Optical Densities ([1]; Log10 Concentration −7.0): 1.224; Percent Growth ([1]; Log10 Concentration −7.0): 91%; Mean Optical Densities ([1]; Log10 Concentration −8.0): 1.227; Percent Growth ([1]; Log10 Concentration −8.0): 91%; GI50 [2]: 4 µM; TGI [2]: 1.67E−5; Mean Optical Densities ([2]; Log10 Concentration −4.0): 0.032; Percent Growth ([2]; Log10 Concentration −4.0): −95%; Mean Optical Densities ([2]; Log10 Concentration −5.0): 1.287; Percent Growth ([2]; Log10 Concentration −5.0): 27%; Mean Optical Densities ([2]; Log10 Concentration −6.0): 2.593; Percent Growth ([2]; Log10 Concentration −6.0): 84%; Mean Optical Densities ([2]; Log10 Concentration −7.0): 2.649; Percent Growth ([2]; Log10 Concentration −7.0): 87%; Mean Optical Densities ([2]; Log10 Concentration −8.0): 2.814; Percent Growth ([2]; Log10 Concentration −8.0): 94%; GI50 [3]: 7.65 µM; TGI [3]: 2.40E−5; Mean Optical Densities ([3]; Log10 Concentration −4.0): 0.183; Percent Growth ([3]; Log10 Concentration −4.0): −76%; Mean Optical Densities ([3]; Log10 Concentration −5.0): 1.112; Percent Growth ([3]; Log10 Concentration −5.0): 47%; Mean Optical Densities ([3]; Log10 Concentration −6.0): 1.330; Percent Growth ([3]; Log10 Concentration −6.0): 76%; Mean Optical Densities ([3]; Log10 Concentration −7.0): 1.274; Percent Growth ([3]; Log10 Concentration −7.0): 68%; Mean Optical Densities ([3]; Log10 Concentration −8.0): 1.343; Percent Growth ([3]; Log10 Concentration −8.0): 78%; GI50 [4]: 4.52 µM; TGI [4]: 1.94E−5; Mean Optical Densities ([4]; Log10 Concentration −4.0): 0.323; Percent Growth ([4]; Log10 Concentration −4.0): −56%; Mean Optical Densities ([4]; Log10 Concentration −5.0): 0.946; Percent Growth ([4]; Log10 Concentration −5.0): 23%; Mean Optical Densities ([4]; Log10 Concentration −6.0): 1.660; Percent Growth ([4]; Log10 Concentration −6.0): 102%; Mean Optical Densities ([4]; Log10 Concentration −7.0): 1.593; Percent Growth ([4]; Log10 Concentration −7.0): 94%; Mean Optical Densities ([4]; Log10 Concentration −8.0): 1.664; Percent Growth ([4]; Log10 Concentration −8.0): 102%; GI50 [5]: 11.1 µM; TGI [5]: 2.99E−5; Mean Optical Densities ([5]; Log10 Concentration −4.0): 0.249; Percent Growth ([5]; Log10 Concentration −4.0): −65%; Mean Optical Densities ([5]; Log10 Concentration −5.0): 1.363; Percent Growth ([5]; Log10 Concentration −5.0): 59%; Mean Optical Densities ([5]; Log10 Concentration −6.0): 1.902; Percent Growth ([5]; Log10 Concentration −6.0): 107%; Mean Optical Densities ([5]; Log10 Concentration −7.0): 1.888; Percent Growth ([5]; Log10 Concentration −7.0): 106%; Mean Optical Densities ([5]; Log10 Concentration −8.0): 1.866; Percent Growth ([5]; Log10 Concentration −8.0): 104%; GI50 [6]: 3.67 µM; TGI [6]: 1.49E−5; Mean Optical Densities ([6]; Log10 Concentration −4.0): 0.080; Percent Growth ([6]; Log10 Concentration −4.0): −78%; Mean Optical Densities ([6]; Log10 Concentration −5.0): 0.753; Percent Growth ([6]; Log10 Concentration −5.0): 16%; Mean Optical Densities ([6]; Log10 Concentration −6.0): 2.599; Percent Growth ([6]; Log10 Concentration −6.0): 94%; Mean Optical Densities ([6]; Log10 Concentration −7.0): 2.683; Percent Growth ([6]; Log10 Concentration −7.0): 97%; Mean Optical Densities ([6]; Log10 Concentration −8.0): 2.698; Percent Growth ([6]; Log10 Concentration −8.0): 98%; GI50 [7]: 6.53 µM; TGI [7]: 2.42E−5; Mean Optical Densities ([7]; Log10 Concentration −4.0): 0.194; Percent Growth ([7]; Log10 Concentration −4.0): −64%; Mean Optical Densities ([7]; Log10 Concentration −5.0): 1.194; Percent Growth ([7]; Log10 Concentration −5.0): 40%; Mean Optical Densities ([7]; Log10 Concentration −6.0): 2.074; Percent Growth ([7]; Log10 Concentration −6.0): 94%; Mean Optical Densities ([7]; Log10 Concentration −7.0): 2.022; Percent Growth ([7]; Log10 Concentration −7.0): 91%; Mean Optical Densities ([7]; Log10 Concentration −8.0): 2.113; Percent Growth ([7]; Log10 Concentration −8.0): 96%; GI50 [8]: 3.14 µM; TGI [8]: 1.44E−5; Mean Optical Densities ([8]; Log10 Concentration −4.0): 0.116; Percent Growth ([8]; Log10 Concentration −4.0): −68%; Mean Optical Densities ([8]; Log10 Concentration −5.0): 0.561; Percent Growth ([8]; Log10 Concentration −5.0): 13%; Mean Optical Densities ([8]; Log10 Concentration −6.0): 1.725; Percent Growth ([8]; Log10 Concentration −6.0): 87%; Mean Optical Densities ([8]; Log10 Concentration −7.0): 1.666; Percent Growth ([8]; Log10 Concentration −7.0): 83%; Mean Optical Densities ([8]; Log10 Concentration −8.0): 1.767; Percent Growth ([8]; Log10 Concentration −8.0): 89%; GI50 [9]: 13.5 µM; TGI [9]: 3.19E−5; Mean Optical Densities ([9]; Log10 Concentration −4.0): 0.188; Percent Growth ([9]; Log10 Concentration −4.0): −66%; Mean Optical Densities ([9]; Log10 Concentration −5.0): 1.432; Percent Growth ([9]; Log10 Concentration −5.0): 67%; Mean Optical Densities ([9]; Log10 Concentration −6.0): 1.625; Percent Growth ([9]; Log10 Concentration −6.0): 97%; Mean Optical Densities ([9]; Log10 Concentration −7.0): 1.839; Percent Growth ([9]; Log10 Concentration −7.0): 9B; Mean Optical Densities ([9]; Log10 Concentration −8.0): 1.843; Percent Growth ([9]; Log10 Concentration −8.0): 99%; GI50 [10]: 1.87 µM; TGI [10]: 8.56E−6; Mean Optical Densities ([10]; Log10 Concentration −4.0): 0.228; Percent Growth ([10]; Log10 Concentration −4.0): −71%; Mean Optical Densities ([10]; Log10 Concentration −5.0): 0.737; Percent Growth ([10]; Log10 Concentration −5.0): −5%; Mean Optical Densities ([10]; Log10 Concentration −6.0): 1.156; Percent Growth ([10]; Log10 Concentration −6.0): 66%; Mean Optical Densities ([10]; Log10 Concentration −7.0): 1.377; Percent Growth ([10]; Log10 Concentration −7.0): 104%; Mean Optical Densities ([10]; Log10 Concentration −8.0): 1.328; Percent Growth ([10]; Log10 Concentration −8.0): 95%
